Test results from US6407064B2, “Aminoalcohol derivative and medicament comprising the same” (Seikagaku Corporation, priority 1999, dated 2002).

Tests used:
synapse formation = details: WO 95/05177; cited from earlier work
[1] = tested on: MAPkinase (mitogen-activated protein kinase); details: Biochem. Biophys. Res. Commun. 237: 595-600 (1997); cited from earlier work
[2] = tested on: enzyme for GQ1b synthesis; details: Biochem. Biophys. Res. Commun. 237: 595-600 (1997); cited from earlier work
[3] = tested on: cultured neurocytes of rat fetal cerebral cortex; assay: Activity of accelerating synapse formation (intracellular calcium ion level, fura-2); assay type: cell-based; details: relative value, L-PDMP regarded as 100; compound 20 μM; assay on 10th day of culture
Experimental: The activity of accelerating synapse formation was determined by measuring change of an intracellular calcium ion level resulted from the synchronized spontaneous ignition of neurocytes which is considered to show synapse activities by means of an intracellular calcium ion multipoint observation system using a calcium ion fluorescence indicator, fura-2.
Concretely, rat fetuses at the 18th day of pregnancy were taken out from Wistar rats (available from Japan SLC), and cerebral cortices of the fetuses were taken out and cut into small pieces. After having been treated with papain (manufactured by Worthington Biochemical) at 37° C. for 30 minutes, the pieces were suspended into a Dulbecco modified Eagle's medium containing 5% bovine neonatal serum and 5% equine serum and the cortices were dissociated into single cells with Cell Striner (70 μm, Falcon). Then, the cells were inoculated into a flexiperm plate coated with 0.5% polyethyleneimine (1.0×10^6 cells/500 μl/well), and was cultured in 7% CO2 incubator at 37° C. The medium was exchanged on 2nd, 5th, and 8th days after the culture had been started. The activity of the compound of the present invention was measured using the primary culture. The compound was added at the time when the medium was exchanged and the concentration of the compound was maintained to be 20 μM. Assay was carried out on 10th day after the culture had been started.
(2) Measurement of Activity of Accelerating Synapse Formation
Concretely, after the medium of each well where cells were cultured was substituted with basic salt solution (BSS), 3 μl of a DMSO solution (1 mg/ml) of a calcium ion fluorescence indicator fura-2 was added, and the whole was kept at 37° C. for 1 hour.

neurocytes = details: J. Neurochem. 67: 1821-1830, 1996; cited from earlier work

Compound: CCCCCCCCCC(=O)N[C@@H](CN1CCOCC1)[C@@H](O)c1ccccc1 [L-PDMP, (1S,2S)-1-phenyl-2-decanoylamino-3-morpholino-1-propanol, reference compound]
- effect on synapse formation (synapse formation): effect of accelerating synapse formation
- effect on MAPkinase [1]: activates MAPkinase for a long period of time
- effect on activity of enzyme for GQ1b synthesis [2]: increases the activity of an enzyme for GQ1b synthesis
- Activity of synapse formation [3]: 100.0
- effect on ganglioside biosynthesis of neurocytes (neurocytes): accelerate ganglioside biosynthesis of neurocytes
